Measured values taken from EP0424538A1, “PYRIDINE DERIVATIVES AND THEIR SALTS, AND INSECTICIDAL/ACARICIDAL AGENT CONTAINING THE SAME AS ACTIVE INGREDIENT” (IDEMITSU KOSAN COMPANY LIMITED, priority 1989, dated 1990).

system: larvae (3-periods old) of tobiirounka; assay: rice stalk immersion test, life or death of larvae; type: in vivo; settings: 168 h; rice stalk immersed 1 minute in 500 ppm chemical solution; checked after 7 days at 25 °C; read-out: % dead larvae
Experimental: A stalk of rice cut in a length of 10 cm was immersed for 1 minutes in a chemical solution of one of the compounds obtained in the examples (excepting the compound of Example 4) in a concentration of 500 ppm and, after air-drying, put into a test tube containing water, in which larvae (3-periods old) of tobiirounka were released and kept standing in a thermostatic chamber at 25 °C with a cotton plug.
After 7 days of the testing, life or death of the above mentioned larvae was checked to find 100% dead larvae with each of the compounds obtained in the examples. Comparative Test Example.
In place of the compounds used in Test Example, the same test was undertaken by using: . [drawing 136]

| Structure (SMILES) | mortality at 500 µg/mL |
| --- | --- |
| CCCCc1cnccc1CC | 92% |
| Cc1cnccc1C(C)CCC1CCCCC1 (stereo not drawn) [CA 109, 6426j, 1988] | 98% |
| C=CCC(CC=C)c1ccncc1C [CA 85, 32850y, 1976] | 90% |
| CC(C)(C)c1ccncc1C(C)(C)C [CA 100, 155997n, 1984] | 92% |

system: cabbage maggot (Hylemya brassicae); assay: not given; settings: from Chemical Abstracts and Journal of Economic Entomology, 41, 98, 1948; cited from earlier work

| Structure (SMILES) | activity against cabbage maggot |
| --- | --- |
| CCCCCc1ccncc1 [4-n-amyl pyridine] | no activity was recognized |
| CCCCC(CCCC)c1ccncc1 [4-(5-nonyl) pyridine] | no activity was recognized |
